According to ChEMBL document CHEMBL5230097, “Structure-based design of covalent inhibitors targeting metallo-β-lactamases” (Eur J Med Chem, 2020):

How the values were obtained:
[1] = Inhibition of Bacillus cereus II metallo-beta-lactamase using nitrocefin as substrate incubated for 5 mins by spectrophotometric analysis
[2] = Inhibition of metallo-beta-lactamase IMP-1 (unknown origin) expressed in Escherichia coli BL21 (DE3) assessed as substrate hydrolysis using imipenem as substrate by spectrometric analysis; set-up: species or system Bacteria
[3] = Inhibition of Metallo-beta-lactamase NDM-1 (unknown origin) expressed in Escherichia coli BL21 (DE3) assessed as substrate hydrolysis using imipenem as substrate by spectrometric analysis; set-up: species or system Bacteria
[4] = Inhibition of metallo-beta-lactamase ImiS (unknown origin) expressed in Escherichia coli BL21 (DE3) assessed as substrate hydrolysis using imipenem as substrate by spectrometric analysis; set-up: species or system Bacteria
[5] = Inhibition of Metallo-beta-lactamase NDM-1 in Escherichia coli BL21 (DE3) assessed as substrate hydrolysis using cefazolin as substrate preincubated for 20 hrs followed by substrate by spectrometric analysis
[6] = Inhibition of wild type metallo-beta-lactamase IMP-1 (unknown origin) assessed as inhibition constant using nitrocefin as substrate preincubated with compound followed by substrate addition and measured for 60 sec by spectroscopic analysis; set-up: species or system Bacteria
[7] = Inhibition of Escherichia coli metallo-beta-lactamase NDM-1 assessed as substrate hydrolysis using cefazolin as substrate preincubated for 12 hrs followed by substrate by UV-Vis spectrophotometric analysis
[8] = Inhibition of Metallo-beta-lactamase NDM-1 in Escherichia coli BL21 assessed as inhibition constant using nitrocefin as substrate preincubated for 20 mins followed by substrate and measured after 30 mins by spectrophotometric analysis

## C[C@@H](NC(=O)c1ccccc1)C(=O)SCC(=O)O
[1]
  IC50: 645 µM

## CCCCN(CCCC)C(=S)SSC(=S)N(CCCC)CCCC
[2]
  IC50: 0.53 µM
[3]
  IC50: 0.26 µM
[4]
  IC50: 1.8 µM

## O=c1c2ccccc2sn1-c1ccccc1
[5]
  IC50: 0.16 µM

## O=C(CCSC(=O)CCS)Oc1c(F)c(F)c(F)c(F)c1F
[6]
  Ki: 0.42 µM

## O=C(CCS)Oc1c(F)c(F)c(F)c(F)c1F
[6]
  Ki: 3.45 µM

## C[C@@H](NC(=O)Cc1ccccc1)C(=O)SCC(=O)O
[1]
  IC50: 479 µM

## S=C(SSC(=S)N(Cc1ccccc1)Cc1ccccc1)N(Cc1ccccc1)Cc1ccccc1 [BIS(DIBENZYLAMINETHIOCARBONYL)DISULFIDE]
[2]
  IC50: 1.7 µM
[3]
  IC50: 0.32 µM
[4]
  IC50: 2.6 µM

## S=C(SSC(=S)N1CCCCC1)N1CCCCC1 [BIS(PIPERIDINYLTHIOCARBONYL)DISULFIDE]
[2]
  IC50: 0.88 µM
[3]
  IC50: 0.14 µM
[4]
  IC50: 0.49 µM

## S=C(SSC(=S)N1CCCC1)N1CCCC1 [BIS(PYRROLIDINYLTHIOCARBONYL)DISULFIDE]
[2]
  IC50: 0.95 µM
[3]
  IC50: 0.12 µM
[4]
  IC50: 3.7 µM

## O=C(O)C(=O)CBr [BROMOPYRUVATE]
[7]
  IC50: 2.57 µM

## CCN(CC)C(=S)SSC(=S)N(CC)CC [DISULFIRAM]
[2]
  IC50: 2.9 µM
[3]
  IC50: 0.13 µM
[4]
  IC50: 3.6 µM

## O=c1c2ccccc2[se]n1-c1ccccc1 [EBSELEN]
[8]
  Ki: 0.38 µM
